Measurements reported in ChEMBL document CHEMBL5647692, “The novel dual PI3K/mTOR inhibitor NVP-BGT226 displays cytotoxic activity in both normoxic and hypoxic hepatocarcinoma cells” (Oncotarget, 2015).
Active and inactive are the calls of the source. No cut-off for these calls is given here.

Experiments:
Mahlavu [1] = assay: Cytotoxicity against human Mahlavu cells assessed as reduction in cell viability incubated for 48 hrs by MTT assay; assay type: functional, cell-based
SNU-475 [2] = assay: Cytotoxicity against human SNU-475 cells assessed as reduction in cell viability incubated for 48 hrs by MTT assay; assay type: functional, cell-based; conditions: SNU-475, 48 h
SNU-449 [3] = assay: Cytotoxicity against human SNU-449 cells assessed as reduction in cell viability incubated for 48 hrs by MTT assay; assay type: functional, cell-based; conditions: SNU-449, 48 h
Mahlavu [4] = assay: Induction of apoptosis in human Mahlavu cells assessed as cleaved Caspase 9 level at 0.5 uM incubated for 24 hrs by Western blotting analysis; assay type: functional, cell-based
SNU-475 [5] = assay: Induction of apoptosis in human SNU-475 cells assessed as cleaved Caspase 9 level at 0.5 uM incubated for 24 hrs by Western blotting analysis; assay type: functional, cell-based
Hep 3B2 [6] = assay: Induction of apoptosis in human Hep3B cells assessed as cleaved PARP level at 0.5 uM incubated for 24 hrs by Western blotting analysis; assay type: functional, cell-based
Hep 3B2 [7] = assay: Induction of apoptosis in human Hep3B cells assessed as cleaved Caspase 7 level at 0.5 uM incubated for 24 hrs by Western blotting analysis; assay type: functional, cell-based
Hep 3B2 [8] = assay: Induction of apoptosis in human Hep3B cells assessed as cleaved Caspase 9 level at 0.5 uM incubated for 24 hrs by Western blotting analysis; assay type: functional, cell-based
Mahlavu [9] = assay: Induction of apoptosis in human Mahlavu cells assessed as chromatin condensation under normoxia condition at 0.1 to 0.5 uM incubated for 24 hrs by DAPI staining based fluorescence microscope analysis; assay type: functional, cell-based; conditions: dose 0.1-0.5 µM
SNU-449 [10] = assay: Induction of apoptosis in human SNU-449 cells assessed as viable cells at IC50 concentration incubated for 24 hrs in presence of Z-VAD-fmk by Annexin-V/7-AAD staining based muse cell analyzer method (reference value: 90.07 %); assay type: functional
SNU-449 [11] = assay: Induction of apoptosis in human SNU-449 cells assessed as necrotic cells at IC50 concentration incubated for 24 hrs in presence of Z-VAD-fmk by Annexin-V/7-AAD staining based muse cell analyzer method (reference value: 0.95 %); assay type: functional
Mahlavu [12] = assay: Induction of autophagy in human Mahlavu cells assessed as upregulation of LC3A/B II level by Western blot analysis; assay type: functional, cell-based; conditions: dose 0.1-0.5 µM
Mahlavu [13] = assay: Induction of autophagy in human Mahlavu cells assessed as reduction in SQSTM1/p62 level by Western blot analysis; assay type: functional, cell-based; conditions: dose 0.1-0.5 µM
SNU-475 [14] = assay: Induction of autophagy in human SNU-475 cells assessed as upregulation of LC3A/B II level by Western blot analysis; assay type: functional, cell-based; conditions: dose 0.1-0.5 µM
SNU-475 [15] = assay: Induction of autophagy in human SNU-475 cells assessed as reduction in cytotoxicity at 0.5 uM incubated for 24 hrs by MTT assay; assay type: functional, cell-based
Mahlavu [16] = assay: Cytotoxicity against human Mahlavu cells assessed as reduction in cell viability at 0.5 uM incubated for 24 hrs in presence of 3-Methyladenine by MTT assay; assay type: functional, cell-based
SNU-475 [17] = assay: Cytotoxicity against human SNU-475 cells assessed as reduction in cell viability at 0.5 uM incubated for 24 hrs in presence of 3-Methyladenine by MTT assay; assay type: functional, cell-based
[18] = Inhibition of PI3K/Akt/mTOR signaling pathway in human Mahlavu cells assessed as reduction in phosphorylation of mTORC1/2 incubated for 1 hr under normoxia condition by Western blotting analysis; assay type: cell-based; conditions: dose 0.25-1 µM
[19] = Inhibition of PI3K/Akt/mTOR signaling pathway in human Mahlavu cells assessed as reduction in phosphorylation of mTORC1 substrate S6 incubated for 1 hr under normoxia condition by Western blotting analysis; assay type: cell-based; conditions: dose 0.25-1 µM
[20] = Inhibition of PI3K/Akt/mTOR signaling pathway in human SNU-475 cells assessed as reduction in phosphorylation of GSK3 alpha/beta incubated for 1 hr under normoxia condition by Western blotting analysis; assay type: cell-based; conditions: dose 0.25-1 µM
[21] = Inhibition of PI3K/Akt/mTOR signaling pathway in human SNU-475 cells assessed as reduction in phosphorylation of mTORC1 substrate S6 incubated for 1 hr under normoxia condition by Western blotting analysis; assay type: cell-based; conditions: dose 0.25-1 µM
[22] = Inhibition of PI3K/Akt/mTOR signaling pathway in human HepG2 cells assessed as reduction in phosphorylation of GSK3 alpha/beta incubated for 1 hr under normoxia condition by Western blotting analysis; assay type: cell-based; conditions: dose 0.25-1 µM
[23] = Inhibition of PI3K/Akt/mTOR signaling pathway in human HepG2 cells assessed as reduction in phosphorylation of mTORC1 substrate S6 incubated for 1 hr under normoxia condition by Western blotting analysis; assay type: cell-based; conditions: dose 0.25-1 µM
[24] = Inhibition of PI3K/Akt/mTOR signaling pathway in human SNU-449 cells assessed as reduction in phosphorylation of GSK3 alpha/beta incubated for 1 hr under normoxia condition by Western blotting analysis; assay type: cell-based; conditions: dose 0.25-1 µM
[25] = Inhibition of PI3K/Akt/mTOR signaling pathway in human SNU-475 cells assessed as reduction in phosphorylation of Akt at 1 to 10 nM incubated for 1 hr under hypoxia condition by Western blotting analysis; assay type: cell-based; conditions: dose 1-10 nM
[26] = Inhibition of PI3K/Akt/mTOR signaling pathway in human Mahlavu cells assessed as reduction in S6 phosphorylation at 1 to 10 nM incubated for 1 hr under hypoxia condition by Western blotting analysis; assay type: cell-based; conditions: dose 1-10 nM
[27] = Inhibition of PI3K/Akt/mTOR signaling pathway in human Mahlavu cells assessed as reduction in phosphorylation of Akt at 1 to 10 nM incubated for 1 hr under normoxia condition by Western blotting analysis; assay type: cell-based; conditions: dose 1-10 nM
[28] = Inhibition of PI3K/Akt/mTOR signaling pathway in human SNU-475 cells assessed as reduction in phosphorylation of Akt at 0.001 to 0.01 uM incubated for 1 hr under hypoxia condition by Western blotting analysis; assay type: cell-based; conditions: dose 0.001-0.01 µM
SNU-449 [29] = assay: Cytotoxicity against human SNU-449 cells assessed as reduction in cell viability incubated for 24 hrs under hypoxia condition by MTT assay; assay type: functional, cell-based
Hep 3B2 [30] = assay: Cytotoxicity against human Hep3B cells assessed as reduction in cell viability incubated for 24 hrs under hypoxia condition by MTT assay; assay type: functional, cell-based
Mahlavu [31] = assay: Induction of autophagy in human Mahlavu cells assessed as increased expression of LC3A/B II level incubated for 24 hrs under hypoxia condition by Western blot analysis; assay type: functional, cell-based; conditions: dose 0.1-0.5 µM
SNU-475 [32] = assay: Induction of autophagy in human SNU-475 cells assessed as increase in LC3I to LC3II conversion at 0.5 uM incubated for 24 hrs under hypoxia condition by Western blot analysis; assay type: functional, cell-based
SNU-475 [33] = assay: Cytotoxicity against human SNU-475 cells assessed as reduction in cell viability at 0.5 uM incubated for 24 hrs in presence of chloroquine under hypoxia condition by MTT assay; assay type: functional, cell-based
Hep 3B2 [34] = assay: Cytotoxicity against human Hep3B cells assessed as reduction in cell viability at 0.5 uM incubated for 24 hrs in presence of 3-Methyladenine under hypoxia condition by MTT assay; assay type: functional, cell-based
[35] = target: Hypoxia-inducible factor 1-alpha (Homo sapiens) (UniProt Q16665); assay: Inhibition of HIF-1alpha in human Mahlavu cells incubated for 6 hrs under hypoxia condition by Western blot analysis; assay type: cell-based; conditions: dose 0.01-0.1 µM
Mahlavu [36] = assay: Anti-tumor activity against human Mahlavu cells assessed as reduction of VEGF level incubated for 24 hrs under hypoxia condition by Western blot analysis; assay type: functional, cell-based; conditions: dose 0.01-0.1 µM

Sequence of Hypoxia-inducible factor 1-alpha (Homo sapiens) (Q16665 whole entry, looked up): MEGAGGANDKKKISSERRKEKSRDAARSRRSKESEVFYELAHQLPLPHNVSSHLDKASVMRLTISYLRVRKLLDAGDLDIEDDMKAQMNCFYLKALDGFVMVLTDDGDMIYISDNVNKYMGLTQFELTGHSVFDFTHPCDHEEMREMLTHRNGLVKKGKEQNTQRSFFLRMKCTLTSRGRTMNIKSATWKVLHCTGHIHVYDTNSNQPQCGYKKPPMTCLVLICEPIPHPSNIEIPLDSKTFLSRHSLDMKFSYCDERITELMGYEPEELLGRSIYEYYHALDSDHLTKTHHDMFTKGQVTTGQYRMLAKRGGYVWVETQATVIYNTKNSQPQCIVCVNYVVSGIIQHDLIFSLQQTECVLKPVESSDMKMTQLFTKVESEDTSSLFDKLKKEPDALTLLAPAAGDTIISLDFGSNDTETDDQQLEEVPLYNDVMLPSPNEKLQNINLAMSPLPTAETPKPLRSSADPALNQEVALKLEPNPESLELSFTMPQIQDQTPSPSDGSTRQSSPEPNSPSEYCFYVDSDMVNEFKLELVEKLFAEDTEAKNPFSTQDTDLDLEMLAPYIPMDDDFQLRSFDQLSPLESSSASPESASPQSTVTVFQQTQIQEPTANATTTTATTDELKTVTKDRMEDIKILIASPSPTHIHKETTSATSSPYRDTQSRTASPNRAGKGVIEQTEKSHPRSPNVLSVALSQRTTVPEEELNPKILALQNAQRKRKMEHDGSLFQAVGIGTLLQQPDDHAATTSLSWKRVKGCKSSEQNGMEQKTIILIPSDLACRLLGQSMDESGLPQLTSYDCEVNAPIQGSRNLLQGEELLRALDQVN

inhibition [35]: Dose-Dependent Effect
Structure (SMILES): COc1ccc(-c2ccc3ncc4c(c3c2)n(-c2ccc(N3CCNCC3)c(C(F)(F)F)c2)c(=O)n4C)cn1 [BGT-226 FREE BASE]
IC50 (Mahlavu [1]): 550 nM
IC50 (SNU-475 [2]): 1010 nM
IC50 (SNU-449 [3]): 510 nM
Activity (Mahlavu [4]): Active
Activity (SNU-475 [5]): Active
Activity (Hep 3B2 [6]): Active
Activity (Hep 3B2 [7]): Active
Activity (Hep 3B2 [8]): Active
Activity (Mahlavu [9]): Active
Activity (SNU-449 [10]): 83.56%
Activity (SNU-449 [11]): 0.45%
Activity (Mahlavu [12]): Dose-Dependent Effect
Activity (Mahlavu [13]): Dose-Dependent Effect
Activity (SNU-475 [14]): Dose-Dependent Effect
Activity (SNU-475 [15]): Active
Activity (Mahlavu [16]): Active
Activity (SNU-475 [17]): Active
inhibition [18]: Dose-Dependent Effect
inhibition [19]: Dose-Dependent Effect
inhibition [20]: Dose-Dependent Effect
inhibition [21]: Dose-Dependent Effect
inhibition [22]: Dose-Dependent Effect
inhibition [23]: Dose-Dependent Effect
inhibition [24]: Dose-Dependent Effect
inhibition [25]: Active
inhibition [26]: Active
inhibition [27]: Active
inhibition [28]: Active
Activity (SNU-449 [29]): Active
Activity (Hep 3B2 [30]): Active
Activity (Mahlavu [31]): Dose-Dependent Effect
Activity (SNU-475 [32]): Dose-Dependent Effect
Activity (SNU-475 [33]): Active
Activity (Hep 3B2 [34]): Active
Activity (Mahlavu [36]): Dose-Dependent Effect
